Results on 8 compounds are retold here after article PMC5149019, “Synthesis, Characterization and Cytotoxicity of Alkylated Quercetin Derivatives” (Iranian Journal of Pharmaceutical Research : IJPR, 2016).

Series [1] in a line: Solubility in DMEM medium by turbidimetry. Type of series: physicochemical. Particulars: turbidimetry at 630 nm; for solubility at 48 h: 37 °C, aqueous buffer, kinetic from dmso stock. Here is the method:
Solubility of the derivatives was evaluated by turbidimetry as previously described ([7]). Briefly, derivatives were dissolved in DMSO at a final concentration of 50 mM, and then diluted by DMEM medium at final concentrations of 20, 40, 60, 80, 100, 120, 140, 160, 180 and 200 μM. After these solutions were incubated at 37 ℃ for 48 h, absorbances of them at 630 nm were measured.

For series [2], the system named is cancer cells. The following applies: cited from earlier work.
Series [3] deals with MCF-7 cells. As to the kind of experiment: MTT cytotoxicity assay, MCF-7 cells. The following applies: for IC50: Homo sapiens, MCF7, MCF-7 cells, 48 h exposure, MTT. Type of series: cell-based, human. On the procedure: (§1) Taking solubility of the derivatives into consideration, BQ and GQ were selected for the primary cytotoxicity study. According to the result of the primary cytotoxicity study, the cytotoxicity of GQ on NCI-H446, A549, MGC-803 and SGC-7901 cell lines was further investigated. To justify the effectiveness of BQ and GQ, cytotoxicity of the parent compound quercetin on all the cell lines used in this study was determined either. Briefly, 8000 cells with 0.1 mL medium were seeded in 96-well microplates. The derivatives or quercetin were dissolved in DMSO (50 mM) and then diluted with the medium to a series of testing concentrations. After exposure to the derivatives or quercetin for 48 h, cells were carefully washed by PBS three times and then 0.1 mL MTT (0.5 mg/mL) was added to each well. DMSO was used as solvent for following spectrum analysis at 570 nm. Proliferation values were calculated with the formula as follow: proliferation = (Atest-Ablank)/(Acontrol-Ablank). According to the proliferation data, all IC50 values were calculated by SPSS software using probit regression assay.
(Tetrazolium assays rely on reduction of a dye to a coloured formazan, in cell work by metabolically active cells.)

Series [4] deals with Caco-2 cells. The experiment in a line: MTT cytotoxicity assay, Caco-2 cells. Format: cell-based. Particulars: Homo sapiens, 48 h exposure. Here is the method:
as §1

The test system of series [5] is NCI-H446. The experiment in a line: MTT cytotoxicity assay, NCI-H446 cells. Type of series: cell-based. The following applies: Homo sapiens, 48 h exposure. Here is the method:
as §1

Series [6] deals with A549. The experiment in a line: MTT cytotoxicity assay, A549 cells. Type of series: cell-based. Particulars: Homo sapiens, 48 h exposure. On the procedure:
as §1

The subject of series [7] is MGC-803. The experiment in a line: MTT cytotoxicity assay, MGC-803 cells. Format: cell-based. Particulars: Homo sapiens, 48 h exposure. On the procedure: as §1
Series [8] concerns SGC-7901. The experiment in a line: MTT cytotoxicity assay, SGC-7901 cells. Format: cell-based. The following applies: Homo sapiens, 48 h exposure. Here is the method: as §1
The mark [9] stands for this setting: compared with quercetin, ref [5].

Converted amounts (≈) assume the structure as drawn.

As to `O=c1c(O)c(-c2ccc(O)c(O)c2)oc2cc(OCC=Cc3ccccc3)cc(O)c12` [CQ, 7-O-cinnamylquercetin], the “solubility in DMEM medium (in words)” value in series [1] (37 ℃, 48 h) is reported as “almost insoluble”.

`O=c1c(O)c(-c2cc(O)c(O)c(S(=O)(=O)O)c2)oc2c(S(=O)(=O)O)c(O)cc(O)c12` [quercetin-5′,8-disulfonate]: the “increased cytotoxicity relative to quercetin” value in series [2] (relative to quercetin, ref [4]) is “about 1.5 fold”.

Regarding `COc1cc(O)c2c(=O)c(OC)c(-c3ccc(OC)c(OC)c3)oc2c1` [3,7,3′,4′-O-tetramethylquercetin], in series [2] (setting [9]), the “cytotoxicity compared with quercetin (in words)” value is listed as “decreases the cytotoxicity”.

A word on the IC50: it is the midpoint of a concentration-inhibition curve. As to `O=c1c(O)c(-c2ccc(O)c(O)c2)oc2cc(O)cc(O)c12` [Quercetin], the concentration for half-maximal inhibition (IC50) in series [3] is 343 µM; in series [4] it was 340 µM; in series [5] it was 68.9 µM; in series [6], 77.2 µM; in series [7] it was 80.6 µM; in series [8], 75.7 µM.

What is called solubility is the concentration that dissolves in the medium under given conditions. Lower therefore signals little dissolved substance. As to `CC(C)=CCC/C(C)=C/COc1cc(O)c2c(=O)c(O)c(-c3ccc(O)c(O)c3)oc2c1` [GQ, 7-O-geranylquercetin], the half-maximal inhibitory concentration (IC50) in series [3] came to 20.2 µM; in series [4], 43.7 µM; in series [5], 27.6 µM; in series [6] it was 29.5 µM; in series [7], 25.4 µM; in series [8], 18.5 µM. For the same compound, the solubility at 48 h in series [1] is roughly 180 µM (≈ 78.9 µg/mL).

On to `CCCCOc1cc(O)c2c(=O)c(O)c(-c3ccc(O)c(O)c3)oc2c1` [BQ, 7-O-Butylquercetin], for which the half-inhibitory concentration (IC50) in series [3] came out at 38.6 µM; in series [4], 66.8 µM. In series [1], this compound came in with a solubility at 48 h of roughly 180 µM (≈ 64.5 µg/mL).

As to `CC(=O)Oc1cc(O)c2c(=O)c(OC(C)=O)c(-c3ccc(OC(C)=O)c(OC(C)=O)c3)oc2c1` [3,7,3′,4′-O-tetraacetylquercetin], the “cytotoxicity compared with quercetin” value in series [2] (setting [9]) was “about 3 fold”.

As to `C=CCOc1cc(O)c2c(=O)c(O)c(-c3ccc(O)c(O)c3)oc2c1` [AQ, 7-O-allylquercetin], the “inhibition rate to MCF-7 cells” value in series [3] (at the highest concentration) is “less than 50%”. The compound further had a solubility at 48 h in series [1] of roughly 140 µM (≈ 47.9 µg/mL).
